Laboratory results as given in US9625448B2, “Double caged GABA compounds, bis-CNB-GABA” (The Trustees of Princeton University, priority 2014, dated 2017).
Entries after “also recorded” stand apart in the source; their conditions may differ. Where two headings read alike, the source gives them in different places.

Legend:
[1] = Absorbance spectrum / extinction coefficient; format: physicochemical; details: for extinction coefficient: at 262 nm
Procedure: Following successful synthesis of bis-CNB-GABA, it was necessary to quantify extinction coefficient and quantum yield. […] Referring to FIG. 32, the first was accomplished simply by taking an absorbance spectrum of the compound. Extinction coefficient was then calculated from Beer's law.

physchem = format: physicochemical; details: pH 7, aqueous buffer, thermodynamic from solid
From the text: Solubility data was important to obtain before attempting to use the compound in neural tissue. This was accomplished by dissolving a known amount of bis-CNB-GABA in pH 7.0 phosphate buffer solution.

GABAA receptors [2] = assay: Monosynaptic IPSC, whole-cell patch clamp of dentate granule cells of rat hippocampal slices (Molnár & Nadler, 2000); format: cell-based
Procedure: FIGS. 25A-25B illustrate CNB-GABA depressed in a concentration-dependent manner the monosynaptic IPSC evoked by stimulation of the molecular layer as was observed by Molnár & Nadler, 2000. Referring to FIGS. 2A-25B, stimuli were delivered every 30 s. […] FIG. 25B illustrates cumulative concentration-response curve. Referring to FIG. 25B, the IC for CNB-GABA was essentially the same in the absence (28±9 mM, mean±S.D., n=5) and presence (32±13 mM, mean±S.D., n=4) of the GABAB receptor antagonist CGP 55845A. (Molnár & Nadler, 2000 European Journal of Pharmacology, 391, 255-262, which is incorporated herein by reference as if fully set forth).
FIG. 26 illustrates whole-cell patch clamp recordings from dentate granule cells of rat hippocampal slices reported by Molnár & Nadler, 2000. […] Holding potential of −80 mV. (Molnár & Nadler, 2000 European Journal of Pharmacology, 391, 255-262, which is incorporated herein by reference as if fully set forth, which is incorporated herein by reference as if fully set forth). […] FIG. 27 illustrates summary of the amplitudes of the current evoked by puff of 100 μM GABA and caged compounds around the soma reported by Matsuzaki et al., 2010. The amplitude was normalized to the mean current that was induced by GABA application alone. Left panel illustrates control (n=7); +10 mM CNI-GABA (n=7). […]

GABAA receptors [3] = details: cited from earlier work
[4] = Gee et al., 1994; cited from earlier work

Structure (SMILES) | wavelength of maximal absorbance [1] [nm] | extinction coefficient ([1]; listed as Bis-CNB GABA) | extinction coefficient ([1]; listed as Bis-CNB-GABA) [M⁻¹ cm⁻¹] | solubility (physchem) [mM] | concentration required to generate 33% reduction in response (GABAA receptors [2]) [µM] | IC33 (GABAA receptors [2]; Table 1, calculated, q=0.33, in mM) | effect on GABA-evoked currents (GABAA receptors [3]; 200 μM) | IC50 (GABAA receptors [3]; Molnár & Nadler, 2000, read-out: IC50, suppression of GABA-evoked IPSC currents) [µM] | IC50 (GABAA receptors [3]; Table 2, O-CNB-GABA in hippocampal dentate neurons, read-out: IC50 in blocking synaptic GABAA currents) [µM] | activity at GABA receptors before photolysis (GABAA receptors [3]) | solubility [4]
O=C(CCCNC(C(=O)O)c1ccccc1[N+](=O)[O-])OC(C(=O)O)c1ccccc1[N+](=O)[O-] (centres unmarked) [bis-CNB-GABA, 2-((4-(Carboxy(2-nitrophenyl)methoxy)-4-oxobutyl)amino)-2-(2-nitrophenyl)acetic acid] | 262 | 7,550 M^−1 cm^−1 | 7550 | ≤ 17 | – | – | – | – | – | – | –
NCCCC(=O)OC(C(=O)O)c1ccccc1[N+](=O)[O-] (centres unmarked) [mono-CNB-GABA] | – | – | – | – | 14 | 0.014 | reversibly eliminated | 28 | 28 | antagonize GABA receptors; also recorded: antagonist of GABAA receptors | over 50 mM
